From US6002002A, “Anti-ischaemic hydroxylamine derivatives and pharmaceutical compositions” (Biorex Research & Development Co., priority 1995, dated 1999)

What was measured:
[1] = system: isolated rabbit thoracal aorta; test: in vitro vasorelaxation on isolated rabbit thoracal aorta; format: cell-based; details: Oryctolagus cuniculus
Description: The vasorelaxant effect of the compounds of the invention was tested in vitro on isolated rabbit thoracal aorta according to Am. J. Physiol. 257:, 1327-1333 (1989).

platelet aggregation = test: Inhibition of ADP-induced platelet aggregation in platelet-rich preparates from human venal blood; format: cell-based; details: concentration inhibiting the aggregation in 50%, read-out: antiaggregation EC50
Description: To the samples sodium citrate was added and 10 minutes later centrifuged with 1000 rpm.

anaesthetized rats = test: Reperfusion-induced arrhytmia (ventricular tachycardia and fibrillation) after LAD coronary occlusion in anaesthetized rats; survival; format: in vivo; details: rat, 1 mg/kg i.v. 5 minutes before pressing LAD coronary artery; 5 min ischaemia, 10 min reperfusion
Description: The reperfusion-induced arrhytmia (ventricular tachycardia, KT and ventricuiar fibrillation, KF) was tested on anaesthetized rats. Myocardial ischaemia was induced by pressing the coronary artery for 5 minutes followed by 10 minutes reperfusion of the heart. The ECG was permanently monitored and the change of mean period of KT and KF by the effect of active materials was measured in the first 3 minutes of reperfusion. Survival was also monitored. The compounds were administered i.v. 5 minutes before pressing the LAD coronary artery in a dosis of 1 mg/kg.
Experimental results obtained by administering some representative compounds of the invention are listed below: […]

Structure (SMILES)	EC50 [1]	EC50 (platelet aggregation)	Survival % (anaesthetized rats)
O=C(NOCC(O)CN1CCCCC1)Nc1cccc(Cl)c1 (stereo not shown) [Example 7, N-(3-chlorophenyl)-N'-(2-hydroxy-3-piperidino-propoxy)-urea]	100 µM	900 µM	86%
CCCNC(=O)NOCC(O)CN1CCCCC1 (stereo not shown) [Example 4, N-n-propyl-N'-(2-hydroxy-3-piperidino-propoxy)-urea]			67%
CCCCCCNC(=O)NOCCCN1CCCCC1 [Example 16, N-n-hexyl-N'-(3-piperidino-propoxy)-urea]	450 µM	710 µM	83%
CCCCCCNC(=O)NOCC(O)CN1CCCCC1 (stereo not shown) [Example 6, N-n-hexyl-N'-(2-hydroxy-3-piperidino-propoxy)-urea]	190 µM	1500 µM	100%
CC(C)COCC(CN(Cc1ccccc1)c1ccccc1)N1CCCC1 (stereo not shown) [Bepridyl, reference compound]	83 µM		
CCOC(=O)[N-]c1c[n+](N2CCOCC2)no1 [Molsidomin, reference compound]		1500 µM	
CC(C)(C)N(CC(O)CONC(=O)NC1CCCCC1)C(=O)NC1CCCCC1 (stereo not shown) [Example 15, N-cyclohexyl-N'-{2-hydroxy-3-[N-(cyclohexyl-carbamoyl)-N-tert-butylamino]-propoxy}-urea]			60%
O=C(NOCC(O)CN1CCCCC1)NC1CCCCC1 (stereo not shown) [Example 5, N-cyclohexyl-N'-(2-hydroxy-3-piperidino-propoxy)-urea]			67%
CCCCCCCNC(=O)NOCC(O)CN1CCCCC1 (stereo not shown) [Example 23, N-heptyl-N'-(2-hydroxy-3-piperidino-propoxy)-urea]	190 µM	430 µM	80%
O=C(NOCC(O)CN1CCCCC1)Nc1cccc([N+](=O)[O-])c1 (stereo not shown) [Example 19, N-(3-nitrophenyl)-N'-(2-hydroxy-3-piperidino-propoxy)-urea]	38 µM	340 µM	
